Some test systems named below: OVCAR-4 ovarian; IGROV1 ovarian; EKVX NSCLC; BT-549 breast; SK-MEL-5 melanoma; COLO 205 colon; MCF7 breast; UACC-62 melanoma; U251 CNS; HS 578T breast.
What all share (experiment): NCI tumour cell line growth inhibition, 48 h

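Briefly, cells in 96-well plates were exposed to five compound concentrations for 48 h, and endpoints were estimated by linear interpolation. Here, GI50 denotes the concentration required for 50% inhibition of growth. Definition used: TGI = concentration required for complete inhibition of growth.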

As for `CN1CCN(C(=S)SCN2C(=O)c3ccccc3S2(=O)=O)CC1`, the GI50 in the assay on OVCAR-4 ovarian is 23.2 µM; with IGROV1 ovarian it was 44.8 µM; in the assay on EKVX NSCLC, greater than 100 µM; with BT-549 breast, greater than 100 µM; with SK-MEL-5 melanoma, 16.1 µM; with COLO 205 colon, 3.48 µM. The GI50 in the assay with MCF7 breast was 8.29 µM; in the assay on UACC-62 melanoma, 18.8 µM; with U251 CNS it was 26.5 µM; with HS 578T breast it was 58.7 µM. Moreover, the TGI is 72.3 µM in the assay with OVCAR-4 ovarian; greater than 100 µM in the assay with IGROV1 ovarian; greater than 100 µM in the assay with EKVX NSCLC; greater than 100 µM in the assay on BT-549 breast; 38.9 µM in the assay on SK-MEL-5 melanoma; 21.3 µM with COLO 205 colon. In addition, the TGI is greater than 100 µM with MCF7 breast, 54.1 µM with UACC-62 melanoma, greater than 100 µM in the assay with U251 CNS and greater than 100 µM in the assay on HS 578T breast.
As to `C#Cc1cccc(Nc2ncnc3ccc(-c4cncc(NS(C)(=O)=O)c4)cc23)c1`, the GI50 was 3.59 µM in the assay with OVCAR-4 ovarian; 0.309 µM in the assay on IGROV1 ovarian; 1.12 µM in the assay on EKVX NSCLC; 1.07 µM with BT-549 breast; 1.63 µM in the assay with SK-MEL-5 melanoma; 1.68 µM with COLO 205 colon. Also, the GI50 is 1.5 µM in the assay with MCF7 breast, 1.66 µM in the assay on UACC-62 melanoma, 2.5 µM with U251 CNS and 1.1 µM in the assay on HS 578T breast. For the same compound, the TGI was 75.9 µM in the assay with OVCAR-4 ovarian; 1.68 µM with IGROV1 ovarian; 4.6 µM in the assay on EKVX NSCLC; 4.55 µM in the assay on BT-549 breast; 3.06 µM in the assay with SK-MEL-5 melanoma; 3.94 µM in the assay on COLO 205 colon. The TGI with MCF7 breast worked out at 8.71 µM; in the assay on UACC-62 melanoma it was 5.69 µM; in the assay with U251 CNS it was 10.3 µM; in the assay on HS 578T breast it was 4.65 µM.
Take `O=C(Cc1nc2ccc([N+](=O)[O-])cc2[nH]c1=O)C(=O)Nc1cc(Cl)c(Cl)cc1Cl`: the TGI in the assay on OVCAR-4 ovarian, in the assay with IGROV1 ovarian, in the assay on EKVX NSCLC, in the assay on BT-549 breast, in the assay on SK-MEL-5 melanoma and with COLO 205 colon was greater than 100 µM throughout. The TGI in the assay with MCF7 breast, in the assay on UACC-62 melanoma, in the assay on U251 CNS and in the assay on HS 578T breast was greater than 100 µM throughout.
As to `COCCCN1C(=O)C2c3[nH]c4ccccc4c3C3CCC(C(C)(C)C)CC3C2C1=O` (stereo not given), the TGI in the assay on OVCAR-4 ovarian was greater than 100 µM; in the assay with IGROV1 ovarian, greater than 100 µM; in the assay on EKVX NSCLC, greater than 100 µM; with BT-549 breast, greater than 100 µM; in the assay with SK-MEL-5 melanoma, 82.4 µM; in the assay on COLO 205 colon, greater than 10 µM. Also, the TGI with MCF7 breast is 56.2 µM; in the assay with UACC-62 melanoma, greater than 10 µM; with U251 CNS, 34.5 µM; in the assay with HS 578T breast, 87.6 µM.
As to `CCCCCCCCCCCCCCCCCC1=NC(C)(C)CN1CCO`, the GI50 with OVCAR-4 ovarian was 3.12 µM; in the assay with IGROV1 ovarian, 1.56 µM; in the assay on EKVX NSCLC, 3.8 µM; in the assay on BT-549 breast it was 19.8 µM; with SK-MEL-5 melanoma it was 2.16 µM; with COLO 205 colon, 1.55 µM. Further, the GI50 with MCF7 breast is 1.78 µM; in the assay on UACC-62 melanoma it was 1.68 µM; in the assay with U251 CNS it was 1.65 µM; in the assay on HS 578T breast it was 1.66 µM. The TGI was determined as 9.8 µM with OVCAR-4 ovarian; 3.11 µM with IGROV1 ovarian; 18.6 µM in the assay with EKVX NSCLC; 48 µM with BT-549 breast; 4.95 µM with SK-MEL-5 melanoma; 2.93 µM with COLO 205 colon. Also, the TGI in the assay with MCF7 breast was 3.32 µM; in the assay with UACC-62 melanoma, 3.18 µM; with U251 CNS it was 3.01 µM; in the assay with HS 578T breast, 3.93 µM.
Take `CNC(=O)OCC1=C(COC(=O)NC)CN(c2ccccc2)C1`: the TGI with OVCAR-4 ovarian, in the assay on IGROV1 ovarian, in the assay on EKVX NSCLC, with BT-549 breast, in the assay with SK-MEL-5 melanoma and in the assay with COLO 205 colon was greater than 100 µM throughout. Further, the TGI in the assay on MCF7 breast, with UACC-62 melanoma, with U251 CNS and with HS 578T breast was greater than 100 µM in each case.
Take `CCCCCCCCCCCCCCCC(=O)OCC1OC(n2ccc(N)nc2=O)C(O)C1O` (stereo not given): the TGI in the assay on OVCAR-4 ovarian, with IGROV1 ovarian, in the assay on EKVX NSCLC, in the assay on BT-549 breast, in the assay with SK-MEL-5 melanoma and in the assay with COLO 205 colon was greater than 100 µM each time. Further, the TGI with MCF7 breast, in the assay with UACC-62 melanoma, with U251 CNS and in the assay on HS 578T breast was greater than 100 µM in each case.
For the compound `Cc1csc(Nc2nc(-c3cccc(Cl)c3)nc(C(Cl)(Cl)Cl)n2)n1`, the GI50 in the assay with OVCAR-4 ovarian was 10.7 µM; in the assay with IGROV1 ovarian, 15.7 µM; with EKVX NSCLC it was 1.25 µM; with BT-549 breast, greater than 33.3 µM; with SK-MEL-5 melanoma it was greater than 33.3 µM; in the assay with COLO 205 colon, 1.04 µM. The GI50 with MCF7 breast was 1.46 µM; with UACC-62 melanoma it was 6.73 µM; in the assay with U251 CNS, 1.4 µM; in the assay with HS 578T breast, 1.79 µM. For the same compound, the TGI is greater than 33.3 µM in the assay on OVCAR-4 ovarian; greater than 33.3 µM in the assay with IGROV1 ovarian; 6.89 µM in the assay on EKVX NSCLC; greater than 33.3 µM in the assay with BT-549 breast; greater than 33.3 µM with SK-MEL-5 melanoma; 5.43 µM in the assay with COLO 205 colon. The TGI in the assay with MCF7 breast is greater than 33.3 µM; in the assay with UACC-62 melanoma, greater than 33.3 µM; in the assay with U251 CNS, 19.9 µM; in the assay on HS 578T breast it was 13.2 µM.
In the case of `Cn1c(COC(=O)NCCN2CCOCC2)nc2c(N3CCOCC3)nc(-c3ccccc3)nc21`, the GI50 with OVCAR-4 ovarian was 1.11 µM; with IGROV1 ovarian, 0.656 µM; in the assay with EKVX NSCLC it was 1.48 µM; in the assay with BT-549 breast, 1.08 µM; with SK-MEL-5 melanoma it was 1.64 µM; in the assay on COLO 205 colon, 1.49 µM. For the same compound, the GI50 was 0.47 µM in the assay with MCF7 breast, 1.36 µM with UACC-62 melanoma, 1.37 µM in the assay with U251 CNS and 1.49 µM with HS 578T breast. Moreover, the TGI was 2.53 µM with OVCAR-4 ovarian; 2.15 µM with IGROV1 ovarian; 3.36 µM with EKVX NSCLC; 2.71 µM in the assay on BT-549 breast; 3.05 µM in the assay on SK-MEL-5 melanoma; 3.36 µM with COLO 205 colon. The TGI with MCF7 breast is 2.18 µM; in the assay with UACC-62 melanoma, 2.81 µM; in the assay on U251 CNS, 2.9 µM; with HS 578T breast, 5.38 µM.

The record behind these values is PubChem BioAssay (NCI).
